Laboratory results reported in US10538555B2, “Macrocyclic inhibitors of the PD-1/PD-L1 and CD80(B7-1)/PD-L1 protein/protein interactions” (BRISTOL-MYERS SQUIBB COMPANY, priority 2014, dated 2020).
*1 amine or outer side, *2 acyl side, *3 side chain or, on linkers, in order; H or OH if unused. Where a SMILES comes first, the peptide text is derived from it. Bridges are numbered along the chain shown (N, C = ends). [ ]: non-standard residue; d: D form. Phe(3,4,5-F3) = N[C@@H](Cc1cc(F)c(F)c(F)c1)C(=O)O; NMePhe(4-F) = CN[C@@H](Cc1ccc(F)cc1)C(=O)O; d(cisHyp) = O=C(O)[C@H]1C[C@@H](O)CN1; NMeY = CN[C@@H](Cc1ccc(O)cc1)C(=O)O; NMeF = CN[C@@H](Cc1ccccc1)C(=O)O; X1 = O=C([C@H]1COCCN1[*:1])[*:2]; NMeNle = CCCC[C@H](NC)C(=O)O; dPip = O=C(O)[C@H]1CCCCN1; Orn = NCCC[C@H](N)C(=O)O; Dab = NCC[C@H](N)C(=O)O

Target: T1, Human PD-L1/PD-1 (Homo sapiens, UniProt Q9NZQ7)
T1 construct: TVMV protease cleavage site (C); made in house; host or cells: HEK293T cells
Experiment: HTRF Human PD-L1/PD-1 binding assay (PD-1-Ig/PD-L1-His)
Conditions: PD-L1-His 10 nM, PD-1-Ig 20 nM; class symbol; read-out: HTRF Human PD-L1/PD-1 Binding Assay IC50 Range
Procedure, shortened: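 Truncated Fc-fused human PD-1 (aa 25-167) at 20 nM and His-tagged PD-L1 (aa 18-239) at 10 nM final are used, with peptides preincubated 15 min with PD-L1. Detection uses europium-cryptate anti-Ig and APC anti-His antibodies; 665/620 nm ratio.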

T1 sequence (Q9NZQ7 with tags, fused parts or gaps): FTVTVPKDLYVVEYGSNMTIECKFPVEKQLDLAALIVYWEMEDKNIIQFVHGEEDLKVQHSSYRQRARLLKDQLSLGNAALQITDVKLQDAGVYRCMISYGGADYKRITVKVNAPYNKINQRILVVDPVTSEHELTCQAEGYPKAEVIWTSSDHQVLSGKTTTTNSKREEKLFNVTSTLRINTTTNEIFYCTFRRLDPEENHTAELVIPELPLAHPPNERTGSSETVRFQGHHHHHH

Row | IC50 [nM] | Structure (SMILES)
1 | 1 to 9.9 | CCCC[C@H]1C(=O)N2C[C@H](O)C[C@@H]2C(=O)N[C@@H](CC(=O)O)C(=O)N[C@@H](C(C)C)C(=O)N(C)[C@@H](Cc2ccccc2)C(=O)N[C@@H](CCC(=O)O)C(=O)N2CCOC[C@@H]2C(=O)N[C@@H](Cc2c[nH]c3ccccc23)C(=O)N[C@@H](Cc2ccc(O)cc2)C(=O)N[C@@H](CC(N)=O)C(=O)N[C@H](C(=O)NCC(N)=O)CSCC(=O)N[C@@H](Cc2cc(F)c(F)c(F)c2)C(=O)N(C)[C@@H](Cc2ccc(F)cc2)C(=O)N1C [Example 10591] ({CH2CO}-[Phe(3,4,5-F3)][NMePhe(4-F)][NMeNle][d(cisHyp)]DV[NMeF]E[X1]WYNCG-NH2; thioether N-13)
2 | 1 to 9.9 | CCCC[C@H]1C(=O)N2C[C@H](O)C[C@@H]2C(=O)N[C@@H](CC(=O)O)C(=O)N[C@@H](C(C)C)C(=O)N(C)[C@@H](Cc2ccccc2)C(=O)N[C@@H](CCC(=O)O)C(=O)N2CCOC[C@@H]2C(=O)N[C@@H](Cc2c[nH]c3ccccc23)C(=O)N[C@@H](Cc2ccc(O)cc2)C(=O)N[C@@H](CCCCN)C(=O)N[C@H](C(=O)NCC(N)=O)CSCC(=O)N[C@@H](Cc2cc(F)c(F)c(F)c2)C(=O)N(C)[C@@H](Cc2ccc(F)cc2)C(=O)N1C [Example 10592] ({CH2CO}-[Phe(3,4,5-F3)][NMePhe(4-F)][NMeNle][d(cisHyp)]DV[NMeF]E[X1]WYKCG-NH2; thioether N-13)
3 | 1 to 9.9 | CCCC[C@H]1C(=O)N2CCC[C@@H]2C(=O)N[C@@H](CC(=O)O)C(=O)N[C@@H](C(C)C)C(=O)N(C)[C@@H](Cc2ccccc2)C(=O)N[C@@H](CCC(=O)O)C(=O)N2CCOC[C@@H]2C(=O)N[C@@H](Cc2c[nH]c3ccccc23)C(=O)N[C@@H](Cc2ccc(O)cc2)C(=O)N[C@@H](CC(C)C)C(=O)N[C@H](C(=O)NCC(N)=O)CSCC(=O)N[C@@H](Cc2cc(F)c(F)c(F)c2)C(=O)N(C)[C@@H](Cc2ccc(F)cc2)C(=O)N1C [Example 10593] ({CH2CO}-[Phe(3,4,5-F3)][NMePhe(4-F)][NMeNle][dP]DV[NMeF]E[X1]WYLCG-NH2; thioether N-13)
4 | 1 to 9.9 | CCCC[C@H]1C(=O)N2C[C@H](O)C[C@@H]2C(=O)N[C@@H](CC(=O)O)C(=O)N[C@@H](C(C)C)C(=O)N(C)[C@@H](Cc2ccccc2)C(=O)N[C@@H](CCC(=O)O)C(=O)N2CCOC[C@@H]2C(=O)N[C@@H](Cc2c[nH]c3ccccc23)C(=O)N[C@@H](Cc2ccc(O)cc2)C(=O)N[C@@H](CC(C)C)C(=O)N[C@H](C(=O)NCC(N)=O)CSCC(=O)N[C@@H](Cc2cc(F)c(F)c(F)c2)C(=O)N(C)[C@@H](Cc2ccc(F)cc2)C(=O)N1C [Example 10594] ({CH2CO}-[Phe(3,4,5-F3)][NMePhe(4-F)][NMeNle][d(cisHyp)]DV[NMeF]E[X1]WYLCG-NH2; thioether N-13)
5 | 1 to 9.9 | CCCC[C@H]1C(=O)N2C[C@H](O)C[C@@H]2C(=O)N[C@@H](CC(=O)O)C(=O)N[C@@H](C(C)C)C(=O)N(C)[C@@H](Cc2ccccc2)C(=O)N[C@@H](CCC(=O)O)C(=O)N2CCOC[C@@H]2C(=O)N[C@@H](Cc2c[nH]c3ccccc23)C(=O)N[C@@H](Cc2ccc(O)cc2)C(=O)N[C@@H](CCC(N)=O)C(=O)N[C@H](C(=O)NCC(N)=O)CSCC(=O)N[C@@H](Cc2cc(F)c(F)c(F)c2)C(=O)N(C)[C@@H](Cc2ccc(F)cc2)C(=O)N1C [Example 10595] ({CH2CO}-[Phe(3,4,5-F3)][NMePhe(4-F)][NMeNle][d(cisHyp)]DV[NMeF]E[X1]WYQCG-NH2; thioether N-13)
6 | 1 to 9.9 | CCCC[C@H]1C(=O)N2CCC[C@@H]2C(=O)N[C@@H](CC(=O)O)C(=O)N[C@@H](C(C)C)C(=O)N(C)[C@@H](Cc2ccccc2)C(=O)N[C@@H](CCC(=O)O)C(=O)N2CCOC[C@@H]2C(=O)N[C@@H](Cc2c[nH]c3ccccc23)C(=O)N[C@@H](Cc2ccc(O)cc2)C(=O)N[C@@H](CCCN)C(=O)N[C@H](C(=O)NCC(N)=O)CSCC(=O)N[C@@H](Cc2cc(F)c(F)c(F)c2)C(=O)N(C)[C@@H](Cc2ccc(F)cc2)C(=O)N1C [Example 10596] ({CH2CO}-[Phe(3,4,5-F3)][NMePhe(4-F)][NMeNle][dP]DV[NMeF]E[X1]WY[Orn]CG-NH2; thioether N-13)
7 | 1 to 9.9 | CCCC[C@H]1C(=O)N2CCC[C@@H]2C(=O)N[C@@H](CC(=O)O)C(=O)N[C@@H](C(C)C)C(=O)N(C)[C@@H](Cc2ccccc2)C(=O)N[C@@H](CCC(=O)O)C(=O)N2CCOC[C@@H]2C(=O)N[C@@H](Cc2c[nH]c3ccccc23)C(=O)N[C@@H](Cc2ccc(O)cc2)C(=O)N[C@@H](CC(N)=O)C(=O)N[C@H](C(=O)NCC(N)=O)CSCC(=O)N[C@@H](Cc2cc(F)c(F)c(F)c2)C(=O)N(C)[C@@H](Cc2ccc(F)cc2)C(=O)N1C [Example 10597] ({CH2CO}-[Phe(3,4,5-F3)][NMePhe(4-F)][NMeNle][dP]DV[NMeF]E[X1]WYNCG-NH2; thioether N-13)
8 | 1 to 9.9 | CCCC[C@H]1C(=O)N2CCC[C@@H]2C(=O)N[C@@H](CC(=O)O)C(=O)N[C@@H](C(C)C)C(=O)N(C)[C@@H](Cc2ccccc2)C(=O)N[C@@H](CCC(=O)O)C(=O)N2CCOC[C@@H]2C(=O)N[C@@H](Cc2c[nH]c3ccccc23)C(=O)N[C@@H](Cc2ccc(O)cc2)C(=O)N[C@@H](CCCCN)C(=O)N[C@H](C(=O)NCC(N)=O)CSCC(=O)N[C@@H](Cc2cc(F)c(F)c(F)c2)C(=O)N(C)[C@@H](Cc2ccc(F)cc2)C(=O)N1C [Example 10598] ({CH2CO}-[Phe(3,4,5-F3)][NMePhe(4-F)][NMeNle][dP]DV[NMeF]E[X1]WYKCG-NH2; thioether N-13)
9 | 1 to 9.9 | CCCC[C@H]1C(=O)N2CCC[C@@H]2C(=O)N[C@@H](CC(=O)O)C(=O)N[C@@H](C(C)C)C(=O)N(C)[C@@H](Cc2ccccc2)C(=O)N[C@@H](CCC(=O)O)C(=O)N2CCOC[C@@H]2C(=O)N[C@@H](Cc2c[nH]c3ccccc23)C(=O)N[C@@H](Cc2ccc(O)cc2)C(=O)N[C@@H](CC(C)C)C(=O)N[C@H](C(=O)NCC(N)=O)CSCC(=O)N[C@@H](Cc2cc(F)c(F)c(F)c2)C(=O)N(C)[C@@H](Cc2ccc(O)cc2)C(=O)N1C [Example 10599] ({CH2CO}-[Phe(3,4,5-F3)][NMeY][NMeNle][dP]DV[NMeF]E[X1]WYLCG-NH2; thioether N-13)
10 | 1 to 9.9 | CCCC[C@H]1C(=O)N2CCC[C@@H]2C(=O)N[C@@H](CC(=O)O)C(=O)N[C@@H](C(C)C)C(=O)N(C)[C@@H](Cc2ccccc2)C(=O)N[C@@H](CCC(=O)O)C(=O)N2CCCC[C@@H]2C(=O)N[C@@H](Cc2c[nH]c3ccccc23)C(=O)N[C@@H](Cc2ccc(O)cc2)C(=O)N[C@@H](CCN)C(=O)N[C@H](C(=O)NCC(N)=O)CSCC(=O)N[C@@H](Cc2cc(F)c(F)c(F)c2)C(=O)N(C)[C@@H](Cc2ccc(O)cc2)C(=O)N1C [Example 10600] ({CH2CO}-[Phe(3,4,5-F3)][NMeY][NMeNle][dP]DV[NMeF]E[dPip]WY[Dab]CG-NH2; thioether N-13)
11 | 1 to 9.9 | CCCC[C@H]1C(=O)N2CCC[C@@H]2C(=O)N[C@@H](CC(=O)O)C(=O)N[C@@H](C(C)C)C(=O)N(C)[C@@H](Cc2ccccc2)C(=O)N[C@@H](CCC(=O)O)C(=O)N2CCCC[C@@H]2C(=O)N[C@@H](Cc2c[nH]c3ccccc23)C(=O)N[C@@H](Cc2ccc(O)cc2)C(=O)N[C@@H](CCCN)C(=O)N[C@H](C(=O)NCC(N)=O)CSCC(=O)N[C@@H](Cc2cc(F)c(F)c(F)c2)C(=O)N(C)[C@@H](Cc2ccc(O)cc2)C(=O)N1C [Example 10601] ({CH2CO}-[Phe(3,4,5-F3)][NMeY][NMeNle][dP]DV[NMeF]E[dPip]WY[Orn]CG-NH2; thioether N-13)
